Reference: patent US9895345B2, “Use of Lappaol F to inhibit tumor cell growth” (The Research Foundation Foundation for the State University …, priority 2013, dated 2018)
“Also recorded” adds a separate entry of the source.

What was measured:
[1] = tested on: p21 promoter in RKO p53-proficient (p53+/+) cells; assay: p21 promoter luciferase assay; assay type: cell-based, Human; conditions: 50 μM, 24 hours
Protocol: (§1) FIG. 6: Lappaol F induces p21-promoter activation in cells with wild-type p53 and defective-p53. A&B MCF-7, MDA-MB-231 and RKO cells were untreated (DMSO) or treated with Lappaol F (50 μM) for 48 hrs; cells were then split into two parts; one part was used to analyze p21 mRNA expression by Northern blotting (A) and another part was utilized for p21 protein analysis by Western blotting (B). A full-length p21 cDNA was used as a probe for Northern blot analysis. C & D. p21 promoter luciferase activity in Lappaol F-treated and untreated cells with different p53 status. RKO and MCF-7 cells express the wild type-p53 protein whereas MDA-MB-231 expressing the mutant-p53. Hela cells harbor human papilloma virus; and p53 protein is not functional in these cells. Cells, transfected with p21 promoter luciferase construct, were untreated (DMSO) or treated with Lappaol F (50 μM) for 24 hours then analyzed for luciferase activity.
(§2) Luciferase assays were performed as follows. Briefly, cells transiently transfected with the p21-promoter luciferase construct were treated with or without Lappaol F (50 μM). Twenty-four hours later, luciferase activity of each cell lysate was analyzed using the Luciferase assay system (Thermo Scientific, Rockford, Ill.) with LUMAT LB9507 luminometer (Berthold Technologies, Germany).

[2] = tested on: p21 promoter in RKO p53-deficient (p53-/-) cells; assay: p21 promoter luciferase assay; assay type: cell-based, Human; conditions: 50 μM, 24 hours
Protocol: as §1, §2

mutant-p53 = assay: Mutant-p53 expression by Western blotting; assay type: cell-based, Human
Protocol: (§3) FIG. 7: Lappaol F suppresses expression of mutant-p53 by reducing its half-life. A-C. Lappaol F has minimal effect on wild-type p53 protein expression in cells (MCF-7 and RKO) expressing wild-type p53 (A & C); however, Lappaol F strongly reduces mutant-p53 protein expression in MDA-MB-231, MDA-MB-468 and T47D cells (B & C). D & E. Treatment of Lappaol F reduces mutant-p53 protein half-life in MDA-MB-231 cells. Cells were first treated with or without with Lappaol F (50 μM) for 24 hours, cycloheximide (50 μg/ml) was then added into the cell culture medium for 0-8 hours and cells were harvested at 0, 2, 4, 6 and 8 hours after cycloheximide was added. Samples were subjected to Western blot analysis and the half-life of mutant p53 for cells treated with or without Lappaol F was determined F & G. Lappaol F decreases mutant p53 protein half-life in T47D cells. Mutant-p53 half-life was determined as described.
(§4) Western blotting was done by standard protocols. Sources of the antibodies are as follows: antibodies for p21 and GAPDH were from Santa Cruz Biotechnology (Santa Cruz, Calif.); cyclin B1 antibody was from BD bioscience (San Jose, Calif.); p27 antibody was from Cell Signaling Technology (Danvers, Mass.). CDK1 and CDK2 were from Assay Biotechnology (Sunnyvale, Calif.). […]

RKO cells [3] = assay: Mitotic index by DAPI staining; assay type: cell-based, Human; conditions: 50 μM, 72 hours
Protocol: (§5) FIG. 2: Lappaol F induces G1 and G2 cell cycle arrest. (A) Flow cytometry cell cycle analyses performed on cells treated with vehicle (DMSO) or Lappaol F (50 μM) for 72 hrs. (B) DAPI staining of RKO cells treated with Lappaol F (50 μM) for 72 hours. The number of mitotic cells over the total cells (mitotic index, MI) is also shown.
(§6) Cell cycle profile was determined by flow cytometry as follows. For determining the mitotic index, cells treated with or without Lappaol F were stained with 4′, 6-diamidino-2-phenylindole (DAPI). The number of mitotic cells was counted under a fluorescence microscope. Over 600 cells were counted in each sample and experiments were repeated at least three times.

[4] = tested on: caspases 8, 9 and 3 in HeLa cells; assay: Caspase activation by Western blotting; assay type: cell-based, Human; conditions: 50 μM
Protocol: (§7) FIG. 4: Effect of Lappaol F on caspase activation. The indicated cells were treated with vehicle (DMSO) or Lappaol F (50 μM) for indicated time. Activation of caspases 8, 9 and 3 (indicated by reduced levels of procaspases) was analyzed by Western blotting using indicated antibodies. “C”: vehicle-treated control.
(§8) Western blotting was done by standard protocols. Sources of the antibodies are as follows: antibodies for p21 and GAPDH were from Santa Cruz Biotechnology (Santa Cruz, Calif.); cyclin B1 antibody was from BD bioscience (San Jose, Calif.); p27 antibody was from Cell Signaling Technology (Danvers, Mass.). CDK1 and CDK2 were from Assay Biotechnology (Sunnyvale, Calif.). Northern blot analysis was performed. and a full-length p21 cDNA was used as a probe for detecting the expression of p21 mRNA.

[5] = tested on: caspases 8, 9 and 3 in MDA-MB-231 cells; assay: Caspase activation by Western blotting; assay type: cell-based, Human; conditions: 50 μM
Protocol: as §7, §8

[6] = tested on: caspases 8 and 9 in MCF-7 cells; assay: Caspase activation by Western blotting; assay type: cell-based, Human; conditions: 50 μM
Protocol: as §7, §8

[7] = tested on: MCF10A non-cancerous breast epithelial cells; assay: MTT assay / phase contrast microscopy on non-tumorigenic cells; assay type: cell-based, Human; conditions: 50 μM, 3 days or prolonged to six days
Protocol: (§9) FIG. 1: A. The chemical structure of Lappaol F. B & C. […] Cells shown were treated with or without Lappaol F (50 μM) for 72 hours. D & E. Results of 3-[4, 5-dimethylthiazol-2-yl]-2, 5-diphenyl tetrazolium bromide (MTT) assays showing Lappaol F inhibits tumor cell growth in time- and dose-dependent manners in different cancer cell lines. F & G. MCF10A non-tumorigenic breast epithelial cells treated with Lappaol F (50 μM) for 3 days (F) or 6 days (G). After treatment, cells were harvested for MTT assays (G) or photographs were taken under a phase contrast microscope (F). H. Results of colony formation assay showing that Lappaol F inhibits colony formation by A549 (lung), HCT116 (colon) and DU145 (prostate) tumor cells. I-N. Results of MTT assays showing Lappaol F suppresses cell growth in leukemia, melanoma and sarcoma cell lines.
(§10) MTT cell proliferation assays were performed as follows. Briefly, cells seeded in 12-well plate with or without drug treatment were incubated with 0.5 mg/ml 3-[4, 5-dimethylthiazol-2-yl]-2, 5-diphenyl tetrazolium bromide (MTT) for 1-4 hours. The resulting formazan precipitate was dissolved in isopropanol with 0.04 M HCl. Absorbance was read with a Bio-Rad SmartSpec 3100 at 570 nm with background subtraction read at 690 nm.

wild-type p53 = assay: Wild-type p53 expression by Western blotting; assay type: cell-based, Human
Protocol: as §3, §4

[8] = tested on: p21 promoter (RKO, MCF-7, Hela, MDA-MB-231); assay: p21 promoter luciferase assay in four cell lines; assay type: cell-based, Human; conditions: 50 μM, 24 hours
Protocol: as §1, §2

[9] = tested on: tumor cell lines of different tissue types; assay: Initial cytotoxic screening (colony formation, microscopy); assay type: cell-based, Human; conditions: colon, breast, lung, cervix lines; 50 μM, 72 hours
Protocol: as §9

[10] = tested on: p21, p27, CDK2, cyclin B and CDK1; assay: Cell cycle regulatory protein expression by Western blotting; assay type: cell-based, Human; conditions: 50 μM, different cell lines
Protocol: FIG. 3: Regulation of key cell cycle regulatory proteins by Lappaol F. A-D. The indicated cells were treated with vehicle (DMSO) or Lappaol F (50 μM) for indicated time and protein expression of different cell cycle regulatory protein was analyzed by Western blotting. “C”: vehicle-treated control.
as §8

HeLa tumor xenografts = assay: HeLa xenograft tumor growth in nude mice; assay type: in vivo, BALB/c nude mice
From the text: All animal studies were approved and performed according to Animal Care and Use Guidelines of the Animal Ethics Committee at Guangzhou University of Chinese Medicine (Document No. syxk (Yue) 2008-0001). BALB/c nude mice (female, 4-5 weeks old) were first subcutaneously injected with 5×10^6 of HeLa cells on the back to establish tumor xenografts. Nine-days after tumor cell injection, mice with tumor volume of 90 mm^3-290 mm^3 were randomized into 3 groups; the average initial tumor volumes in each treatment group of mice were 161.28±23.9 mm^3 (for vehicle control), 160.7±17 7 mm^3 (for mice treated with Lappaol F 5 mg/kg) and 144.5±20 5 mm^3 (for mice treated with Lappaol F 10 mg/kg), respectively. Mice were then treated with Lappaol F (5 mg/kg/d, N=7; or 10 mg/kg/d, N=6) or with equivalent volume of vehicle (5% DMSO plus 5% Tween 80 in 5% glucose solution, 5 mL/kg/day, N=7) by intravenous injection for 15 days. Tumor size was monitored by measuring two perpendicular diameters with a caliper every 4 days. The tumor volume was calculated as volume=length×width^2×0.5. Cases of death and body weight in mice were monitored daily. The animal experiments were terminated on day 15 (tumor size exceeded a mean diameter of 20 mm in control animals) by sacrificing mice according to the guidelines. Tumor xenografts were then stripped and weighed. All results were expressed as Mean±standard error of the mean (SEM). Effects of various treatments were analyzed using the ONE-WAY ANOVA analysis and P-values <0.05 were considered statistically significant.

MDA-MB-231 cells [11] = assay: MTT cell proliferation assay; assay type: cell-based, Human; conditions: read-out: estimated absolute EC50 of cell growth suppression
Protocol: as §10

MCF-7 cells [12] = assay: MTT cell proliferation assay; assay type: cell-based, Human; conditions: read-out: estimated absolute EC50 of cell growth suppression
Protocol: as §10

RKO cells [13] = assay: MTT cell proliferation assay; assay type: cell-based, Human; conditions: read-out: estimated absolute EC50 of cell growth suppression
Protocol: as §10

HeLa cells = assay: Flow cytometry cell cycle analysis; assay type: cell-based, Human; conditions: 50 μM, 72 hrs
Protocol: as §5, §6

MDA-MB-231 cells [14] = assay: Flow cytometry cell cycle analysis; assay type: cell-based, Human; conditions: 50 μM, 72 hrs
Protocol: as §5, §6

MCF-7 cells [15] = assay: Flow cytometry cell cycle analysis; assay type: cell-based, Human; conditions: 50 μM, 72 hrs
Protocol: as §5, §6

RKO cells [16] = assay: Flow cytometry cell cycle analysis; assay type: cell-based, Human; conditions: 50 μM, 72 hrs
Protocol: as §5, §6

c-Myc, MDM2 and HuR = assay: Oncogenic protein expression by Western blotting; assay type: cell-based, Human; conditions: 50 μM
Protocol: FIG. 8: Lappaol F down regulates the expression of several oncogenic proteins commonly overexpressed in human cancers and linked to oncogenic transformation. A-C. Lappaol F suppresses the expression of c-Myc (A), MDM2 (B) and HuR (C). Cells were untreated (“C”) or treated with Lappaol F (50 μM) for the indicated times and Western blot analyses were performed using the indicated antibodies.
as §8

## COc1cc([C@H]2Oc3c(OC)cc(C[C@H]4COC(=O)[C@@H]4Cc4cc(OC)c5c(c4)[C@H](CO)[C@@H](c4ccc(O)c(OC)c4)O5)cc3[C@@H]2CO)ccc1O [Lappaol F]
[1]
  induction of the p21 promoter: 3.5 fold
[2]
  upregulation of p21 promoter activity: 8.3 folds
mutant-p53; MDA-MB-231 cells
  levels of mutant-p53: significantly reduced
mutant-p53; MDA-MB-468 and T47D cells
  mutant-p53 expression: strongly inhibited
RKO cells [3]
  mitotic nuclei (mitotic index): no mitotic nuclei were observed
[4]
  caspase activation: elicited caspases 9 and 3 activation
[5]
  caspase activation: activation of caspases 8, 9 and 3 was observed
[6]
  caspase activation: no clear evidence of caspase activation
[7]
  cytotoxicity towards MCF10A non-cancerous breast epithelial cells: minimal cytotoxicity
wild-type p53; MCF-7 cells
  levels of wild-type p53: no significant influence
wild-type p53; RKO cells
  expression levels of wild-type-p53: did not significantly affect
[8]
  p21 promoter activity: significantly enhanced
[9]
  growth inhibitory effect against tumor cell lines: strong growth inhibitory effect
[10]
  expression levels of CDK inhibitors p21 and p27: strikingly elevated
  levels of CDK2, cyclin B and CDK1: clearly reduced
HeLa tumor xenografts; 5 mg/kg/day i.v., 15 days
  inhibition of tumor growth relative to vehicle: 54%
HeLa tumor xenografts; 10 mg/kg/day i.v., 15 days
  inhibition of tumor growth relative to vehicle: 64%
HeLa tumor xenografts; 5 and 10 mg/kg/day i.v., 15 days
  lethality / body weight change in mice: without significant body weight changes; also recorded: did not observe lethality or weight loss
HeLa tumor xenografts; intraperitoneal injection
  effect on HeLa xenografts by intraperitoneal injection: did not show any significant effect
MDA-MB-231 cells [11]
  EC50: 16.8 µM
MCF-7 cells [12]
  EC50: 13.3 µM
RKO cells [13]
  EC50: 25.2 µM
HeLa cells
  cell cycle arrest phase: predominantly arrested in 2N G1-phase
  sub-2N cell death population (sub-G1): 15%
MDA-MB-231 cells [14]
  cell cycle arrest phase: mainly arrested in 4N G2- (or M)-phase
MCF-7 cells [15]
  cell cycle arrest phase: predominantly arrested in 2N G1-phase
RKO cells [16]
  cell cycle arrest phase: mainly arrested in 4N G2- (or M)-phase
c-Myc, MDM2 and HuR
  expression of c-Myc, MDM2 and HuR oncoproteins: strongly down-regulates
